What was measured:
[1] = tested on: NOMO1; test: AUC of viability dose-response curve (% viability x log10 dose units); higher = less sensitive; details: 48 h
In short: (§1)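 Medium-adapted leukemia cells in 1536-well plates, at 500 or 1000 cells/well, were incubated for 48 h at 37°C with library compounds in DMSO at 11 threefold doses from 47 μM to 0.79 nM. CellTiter-Glo One luminescence normalised per plate to DMSO and cell-free wells was fitted with a four-parameter log-logistic model over log10 doses. Area under the curve was integrated from this fit by trapezoidal rule, with curves beyond full viability scaled and failed quality-control curves removed.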

[2] = tested on: P12-Ichikawa; test: as above; details: 48 h
In short: as §1

[3] = tested on: SEM cells; test: as above; details: 48 h
In short: as §1

[4] = tested on: SEM cells; test: cell viability relative to DMSO control; higher = less cytotoxic; details: 48 h
In short: (§2)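 Cells were incubated for 48 h at 37°C before CellTiter-Glo One luminescence was read. The cells were NOMO1 or SEM (500 cells/well) or P12-Ichikawa (1000 cells/well) leukemia cells, adapted for at least four passages in each medium and seeded in 1536-well plates (5 μl). Dosing used library compounds in DMSO applied by pin over 11 threefold points, 47 μM to 0.79 nM. Viability is the per-plate percentage of DMSO wells, with cell-free wells as background.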

[5] = tested on: P12-Ichikawa; test: as above; details: HPLM + 10% dialyzed FBS, 48 h
In short: as §2

CC(C)OC(=O)C(C)(C)Oc1ccc(C(=O)c2ccc(Cl)cc2)cc1
AUC of viability dose-response curve
Details	[1]	[2]	[3]
HPLM + 10% dialyzed FBS	469	447	446
RPMI 5 mM glucose + 10% FBS	459	446	423
RPMI 5 mM glucose + 10% dialyzed FBS	466	464	442

Cn1cc(-c2ccc3nnc(Sc4ccc5ncccc5c4)n3n2)cn1
AUC of viability dose-response curve
Details	[1]	[2]	[3]
HPLM + 10% dialyzed FBS	463	460	457
RPMI 5 mM glucose + 10% FBS	449	448	475
RPMI 5 mM glucose + 10% dialyzed FBS	455	459	472

CC[C@@H]1C(=O)N(C)c2cnc(Nc3ccc(C(=O)NC4CCC(N5CCN(CC6CC6)CC5)CC4)cc3OC)nc2N1C(C)C (stereo partly drawn)
AUC of viability dose-response curve
Details	[1]	[2]	[3]
HPLM + 10% dialyzed FBS	276	201	199
RPMI 5 mM glucose + 10% FBS	259	225	227
RPMI 5 mM glucose + 10% dialyzed FBS	259	225	221

Cc1cn[nH]c1
cell viability [%], [4]
Details	HPLM + 10% dialyzed FBS	RPMI 5 mM glucose + 10% dialyzed FBS
0.000781 µM	89.9	106
0.00234 µM	115	121
0.00702 µM	121	119
0.0211 µM	115	131
0.0632 µM	118	123
0.19 µM	122	131
0.569 µM	121	138
1.71 µM	121	123
5.12 µM	114	143
15.4 µM	69	94.6
46.1 µM	95.6	115

AUC of viability dose-response curve
Details	[1]	[2]	[3]
HPLM + 10% dialyzed FBS	456	461	456
RPMI 5 mM glucose + 10% FBS	471	469	458
RPMI 5 mM glucose + 10% dialyzed FBS	465	461	476

O=C(/C=C/c1ccc(CN(CCO)CCc2c[nH]c3ccccc23)cc1)NO
AUC of viability dose-response curve
Details	[1]	[2]	[3]
HPLM + 10% dialyzed FBS	296	275	262
RPMI 5 mM glucose + 10% FBS	295	271	261
RPMI 5 mM glucose + 10% dialyzed FBS	303	277	269

C[C@@H]1C/C=C/C=C/C=C/C=C/[C@@H](O[C@@H]2O[C@H](C)[C@@H](O)[C@H](N)[C@@H]2O)C[C@@H]2O[C@](O)(C[C@@H](O)C[C@@H]3O[C@H]3/C=C/C(=O)O1)C[C@H](O)[C@H]2C(=O)O
[4], HPLM + 10% dialyzed FBS
Details	cell viability [%]
0.000781 µM	108
0.00234 µM	120
0.00702 µM	103
0.0211 µM	129
0.0632 µM	131
0.19 µM	119
0.569 µM	124
1.71 µM	106
5.12 µM	115
15.4 µM	120
46.1 µM	114

AUC of viability dose-response curve
Details	[1]	[2]	[3]
HPLM + 10% dialyzed FBS	449	439	475
RPMI 5 mM glucose + 10% FBS	460	466	461
RPMI 5 mM glucose + 10% dialyzed FBS	457	461	462

C[C@H](NCc1ccc2c(c1)nc(NC(=O)c1ccc(-c3cn[nH]c3)s1)n2CCc1ccccc1)C(C)(C)C
AUC of viability dose-response curve
Details	[1]	[2]	[3]
HPLM + 10% dialyzed FBS	373	410	248
RPMI 5 mM glucose + 10% FBS	404	403	242
RPMI 5 mM glucose + 10% dialyzed FBS	396	412	224

C[C@]1(CO)CN(c2cc(C(=O)Nc3ccc4c(c3)-c3c(c(C(N)=O)nn3-c3ccc(F)cc3)CC4)c(Cl)cn2)C[C@@]1(C)CO
AUC of viability dose-response curve
Details	[1]	[2]	[3]
HPLM + 10% dialyzed FBS	446	418	421
RPMI 5 mM glucose + 10% FBS	457	423	317
RPMI 5 mM glucose + 10% dialyzed FBS	445	422	422

CC(C)(C)c1nc(-c2cccc(N[S+](=O)([O-])c3c(F)cccc3F)c2F)c(-c2ccnc(N)n2)s1
AUC of viability dose-response curve
Details	[1]	[2]	[3]
HPLM + 10% dialyzed FBS	423	428	439
RPMI 5 mM glucose + 10% FBS	447	409	430
RPMI 5 mM glucose + 10% dialyzed FBS	434	385	425

COc1ccc2cc3[n+](cc2c1OC)CCc1cc2c(cc1-3)OCO2
AUC of viability dose-response curve
Details	[1]	[2]	[3]
HPLM + 10% dialyzed FBS	431	429	445
RPMI 5 mM glucose + 10% FBS	441	390	437
RPMI 5 mM glucose + 10% dialyzed FBS	442	411	428

Cl.Cl.Clc1ccc(Nc2nnc(Cc3ccncc3)c3ccccc23)cc1
AUC of viability dose-response curve
Details	[1]	[2]	[3]
HPLM + 10% dialyzed FBS	448	442	449
RPMI 5 mM glucose + 10% FBS	469	472	446
RPMI 5 mM glucose + 10% dialyzed FBS	460	446	357

C=CCNc1c(O)cc2c(O)c1C[C@@H](C)C[C@H](OC)[C@H](O)[C@@H](C)/C=C(/C)[C@H](OC(N)=O)[C@@H](OC)/C=C\C=C(\C)C(=O)N2
AUC of viability dose-response curve
Details	[1]	[2]	[3]
HPLM + 10% dialyzed FBS	419	428	336
RPMI 5 mM glucose + 10% FBS	411	398	324
RPMI 5 mM glucose + 10% dialyzed FBS	401	410	305

Cc1cc(O)c2c(c1)C(=O)c1cccc(O)c1C2=O
Details	AUC of viability dose-response curve	cell viability [%]
[1], HPLM + 10% dialyzed FBS	460	–
[1], RPMI 5 mM glucose + 10% FBS	475	–
[1], RPMI 5 mM glucose + 10% dialyzed FBS	460	–
[2], HPLM + 10% dialyzed FBS	465	–
[2], RPMI 5 mM glucose + 10% FBS	472	–
[2], RPMI 5 mM glucose + 10% dialyzed FBS	466	–
[3], HPLM + 10% dialyzed FBS	445	–
[3], RPMI 5 mM glucose + 10% FBS	439	–
[3], RPMI 5 mM glucose + 10% dialyzed FBS	449	–
[5], 0.000781 µM	–	112
[5], 0.00234 µM	–	119
[5], 0.00702 µM	–	119
[5], 0.0211 µM	–	127
[5], 0.0632 µM	–	121
[5], 0.19 µM	–	137
[5], 0.569 µM	–	128
[5], 1.71 µM	–	133
[5], 5.12 µM	–	122
[5], 15.4 µM	–	113
[5], 46.1 µM	–	87.1

cell viability [%], [4]
Details	HPLM + 10% dialyzed FBS	RPMI 5 mM glucose + 10% dialyzed FBS
0.000781 µM	99.4	117
0.00234 µM	121	111
0.00702 µM	126	124
0.0211 µM	100	109
0.0632 µM	122	137
0.19 µM	133	140
0.569 µM	135	134
1.71 µM	135	110
5.12 µM	116	123
15.4 µM	70.5	81.2
46.1 µM	71.6	64.7
